Biological target: T1, TAS1R1-372A and TAS1R3-757R (Homo sapiens, UniProt Q7RTX0+Q7RTX1, C757R)
T1 construct: expressed in transfected cells; host or cells: HEK293
T1 sequence (Q7RTX1 21-841): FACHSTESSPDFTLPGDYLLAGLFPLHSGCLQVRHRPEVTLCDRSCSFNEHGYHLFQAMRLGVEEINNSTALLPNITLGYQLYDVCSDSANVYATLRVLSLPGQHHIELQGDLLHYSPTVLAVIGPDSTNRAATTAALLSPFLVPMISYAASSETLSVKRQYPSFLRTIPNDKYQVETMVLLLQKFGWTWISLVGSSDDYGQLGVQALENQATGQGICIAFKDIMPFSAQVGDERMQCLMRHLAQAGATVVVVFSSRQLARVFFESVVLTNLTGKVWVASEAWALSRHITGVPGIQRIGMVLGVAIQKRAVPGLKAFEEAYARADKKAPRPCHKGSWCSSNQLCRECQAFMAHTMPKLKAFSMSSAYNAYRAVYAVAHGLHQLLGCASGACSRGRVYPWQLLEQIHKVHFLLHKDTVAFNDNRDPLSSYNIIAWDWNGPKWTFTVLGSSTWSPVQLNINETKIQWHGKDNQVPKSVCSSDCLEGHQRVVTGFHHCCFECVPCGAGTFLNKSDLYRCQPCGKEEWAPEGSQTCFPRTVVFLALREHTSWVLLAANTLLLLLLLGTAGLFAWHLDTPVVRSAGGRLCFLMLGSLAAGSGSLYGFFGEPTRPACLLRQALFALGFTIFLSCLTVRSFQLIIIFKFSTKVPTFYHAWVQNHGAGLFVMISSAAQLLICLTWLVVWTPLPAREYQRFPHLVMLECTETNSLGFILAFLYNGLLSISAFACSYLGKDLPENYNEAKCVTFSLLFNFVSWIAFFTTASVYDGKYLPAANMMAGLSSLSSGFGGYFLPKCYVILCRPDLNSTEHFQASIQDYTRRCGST
T1 sequence (Q7RTX0 21-852 C757R): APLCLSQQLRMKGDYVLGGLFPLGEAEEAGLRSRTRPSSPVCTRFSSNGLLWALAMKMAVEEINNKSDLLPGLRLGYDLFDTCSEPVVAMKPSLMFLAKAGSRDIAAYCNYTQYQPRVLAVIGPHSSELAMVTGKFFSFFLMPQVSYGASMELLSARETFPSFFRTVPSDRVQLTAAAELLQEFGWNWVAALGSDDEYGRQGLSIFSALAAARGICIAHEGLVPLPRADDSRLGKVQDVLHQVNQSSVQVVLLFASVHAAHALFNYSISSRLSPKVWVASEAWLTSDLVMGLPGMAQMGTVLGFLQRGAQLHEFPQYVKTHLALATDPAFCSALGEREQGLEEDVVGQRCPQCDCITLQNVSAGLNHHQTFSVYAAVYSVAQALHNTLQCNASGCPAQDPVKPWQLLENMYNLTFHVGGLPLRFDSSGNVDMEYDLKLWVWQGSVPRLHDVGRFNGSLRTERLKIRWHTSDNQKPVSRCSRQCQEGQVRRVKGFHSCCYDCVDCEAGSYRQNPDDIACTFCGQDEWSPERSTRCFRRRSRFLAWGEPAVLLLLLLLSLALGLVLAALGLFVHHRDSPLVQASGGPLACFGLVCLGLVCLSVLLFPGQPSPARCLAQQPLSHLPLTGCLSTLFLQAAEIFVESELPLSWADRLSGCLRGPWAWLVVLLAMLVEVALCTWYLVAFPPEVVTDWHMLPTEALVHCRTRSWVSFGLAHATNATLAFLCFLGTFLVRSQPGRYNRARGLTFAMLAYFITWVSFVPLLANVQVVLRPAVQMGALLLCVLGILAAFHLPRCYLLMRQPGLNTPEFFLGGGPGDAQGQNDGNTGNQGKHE
Test: Ca2+ imaging (bath perfusion) in HEK cells transfected with TAS1R1-372A, TAS1R3-757R and Gα16-i3
Assay type: cell-based
Settings: 5∼100 mM
Description: HEK293 cells were cultured at 37°C under a humidified atmosphere containing 5% CO2 in Dulbecco's modified Eagle's medium supplemented with 10% fetal bovine serum. To obtain reproducible Ca^2+ responses, cells were split every 2 days before cells become confluent. Cells were discarded after 2 months of passages and new cells were prepared from frozen-stock. For calcium imaging experiments, cells were seeded onto a 35 mm recording chamber or poly-D-lysine coated 96-well black-wall, clear-bottom recording plates. After 24 hrs at 37°C, confluent cells (60∼70%) were washed in OptiMEM medium supplemented with GlutaMAX-I (invitrogen) and plasmid DNAs were transiently cotransfected into HEK293 cells using Lipofectamine2000 regent (invitrogen) (2.0 µl per 1.0 µg DNA). TAS1Rs (or their mutants) and Gαl6-i3 were transfected using 1.5 and 1.0 µg of plasmid for 35 mm recording chambers, 0.09 and 0.06 µg of plasmid per well for 96-well plates, respectively. […] Immuno staining and Ca^2+ imaging assays were performed 36∼40 hrs after transfection.
Two Ca^2+ imaging systems were used. A bath perfusion system was used for kinetics of activation. Transfected cells in 35 mm recording chambers were washed in Hank's balanced salt solution (HBSS) containing 10 mM HEPES, pH 7.4, and loaded with 3.0 µM Fluo-4 acetoxymethyl ester (invitrogen) for 1.0 hr at 37°C. The dye-loaded cells were subjected to Ca^2+ imaging. Taste solutions diluted in HBSS were applied sequentially to the cells for 30 s with a peristaltic pump at a flow rate of 1.5 ml/min, and fluorescence images were obtained using a S Fluor ×20/0.75 objective lens (Nikon) via a cooled-CCD camera (C6790, Hamamatsu Photonics) fitted to a TE300 microscope (Nikon). Acquisition and analysis of these fluorescence images used AquaCosmos software (v. 1.3, Hamamatsu Photonics). A 3 min interval was left between each tastant application to ensure that the cells were not desensitized as a result of the previous application of tastants. Responses were measured from 30 individual responding cells. […] Isoproterenol (ISO, 10 µM) was used as positive control, which stimulates endogenous β-adrenergic receptors, providing that the Gα16-dependent signal transduction cascade was functional.

N[C@@H](CCC(=O)O)C(=O)[O-].[Na+] [MSG, monosodium glutamate]
activation (Ca2+ mobilization) of transfected cells: elicited transient intracellular calcium increases

Source: paper PMC2725291, “Genetic and Molecular Basis of Individual Differences in Human Umami Taste Perception” (PLoS ONE, 2009)
